We go through eleven compounds from US11179380B2, “Compounds and compositions for use in treating psoriasis” (SOLVOTRIN THERAPEUTICS LTD, priority 2017, dated 2021).

Structures are written as SMILES.

One data set concerns normal healthy skin. In words: Assessment of erythema and itchiness after topical application to shaved forearm. The data set is classed as in vivo. As to conditions: for temporal erythema response: 5% in petroleum jelly. The procedure: Test article dispersed in petroleum jelly was applied to a 2×2 cm patch of shaved forearm (n=3). At specified time intervals the degree of erythema was recorded by blinded observers on a scale of 1-4 (n=3). Itchiness was observed by scratching behaviour also by blinded observers on a scale of 1-4. The time course of erythema resolution was recorded at 30 minute intervals.

The next data set relates to Aldara-treated mice. In words: Aldara-induced model of psoriasis in mice, clinical scoring (PASI). Type of data set: in vivo, mice (C57BL/6J). The note with it: for inflammation in the mouse psoriasis model: summary statement in RESULTS. The procedure: Specific Pathogen-Free female C57BL/6J strain mice, 6-8 weeks of age, were obtained from a commercial supplier and bred in-house (JAX, Charles River). Mice were fed irradiated diet and housed in individually ventilated cages (Tecniplast, UK) under positive pressure. All animal experiments were performed in compliance with the Health Products Regulatory Authority and approved by the Trinity College Dublin's BioResources ethical review board.
The Aldara-induced model of psoriasis was used (Flutter and Nestle, 2013; Morwietz, 2015; Russell et al., 2013; van der Fits et al., 2009). The dorsal skin of mice was shaved and depilated on day −1. Mice were that were in the telogen phase (resting phase) of the hair cycle were chosen for experiments. Mice with visual skin damage from shaving were excluded. Mice were then randomly divided into groups for treatment with topical application of vehicle (white petroleum jelly) or Solvotrin test compounds, prepared in white petroleum jelly. On day 0, mice were scored for disease signs, as per below. After which 62.5 mg of Aldara™ cream (5% Imiquimod; MEDA Pharmaceuticals) was applied to a defined area of the shaved dorsal skin surface. Thirty minutes after the Aldara application, test compounds or vehicle was applied to the dorsal flank, to cover the entire Aldara-challenged surface, with an even layer of the white petroleum. This process was repeated for a further 5 days. Mice were scored daily. On day 6 the mice were euthanized for tissue collection.
The skin of mice was scored for signs of psoriasis-like inflammation for a total of 7 days, (i.e. days 0-6), as described (van der Fits et al., 2009). Mice were scored according to 3 parameters: erythema (the redness of skin); thickening of the skin; and scaling (dryness and flaking of the skin). For each parameter, the mice were scored on a scale from 0-4. Mice with no pathology were scored 0. Mice with mild pathology scored 1. […] The total, or Psoriasis Area and Severity Index (PASI), score was the cumulative score of all three parameters. Therefore for each mouse studied the PASI score can range between 0 to 12.
Power calculations on data from previous studies have shown that a sample size of at least 6 will detect significant difference (P<0.05) in PASI scores between groups. ANOVA and Dunnett Multiple Comparison Test determined statistical differences between multiple groups. Two tailed Student's t-test was used to compare statistical differences between two groups.
Unless otherwise specified percentage concentration of a test compound in a composition refers to the weight percent of said test compound in the composition. For example, application of 2% compound X, means application of a composition comprising 2 weight percent of compound X.

Data set [1] has as its system Peripheral Blood Mononuclear Cells (PBMCs). In words: Cytokine-expressing cells in stimulated PBMC (anti-CD3, PMA and ionomycin), flow cytometry. The data set is classed as cell-based, human. As for the experimental part:
PBMC were isolated from leukocyte-enriched buffy coats obtained from anonymous healthy donors with consent from the Irish Blood Transfusion Service, St James' Hospital, Dublin, Ireland. PBMC were pre-treated with test compounds or a vehicle control at the indicated concentrations for 6 hours prior to stimulation by anti-CD3 for 4 days and re-stimulated with PMA and ionomycin for 6 hours. Thereafter cells were counted using flow cytometry.
(Flow cytometry measures light scatter and fluorescence of single cells or particles in a stream.)

In the next data set the test system is Primary human DC. Put plainly: Cytokine concentrations in LPS-stimulated monocyte-derived dendritic cells, ELISA. Type of data set: cell-based. As to conditions: LPS 24 hours. As for the experimental part: Primary human DC were produced from CD14+ monocytes isolated from healthy human PBMC via magnetic cell sorting. Monocyte-derived DC were pre-treated with test compounds or a vehicle control for 6 hours prior to stimulation by LPS for 24 hours. Cytokine concentrations in cell supernatants were determined by ELISA (eBiosciences).
A general note: An ELISA detects its analyte on a solid surface through an enzyme-linked reagent.

The next data set can be described thus: physchem. The note with it: for Rm: calculated from Rf; for Extrapolated Rm (y value): theoretical Rm at 0% organic modifier. The procedure:
The partition coefficient (P) is used to describe the lipophilicity of a drug. It is defined as the ratio of equilibrium concentrations of a drug in an organic phase (Corg) and an aqueous phase (Caq).
Most commonly the organic solvent is n-octanol and the other solvent is water. Hydrophobic molecules will have a high P value while hydrophilic molecules will have a low P value.
Rm values were calculated from Rf values that were obtained at three different mobile phase compositions (40, 50 and 60% MeOH in water).
The Rm value was calculated using the following equation: […]
The theoretical Rm value at 0% organic modifier was calculated by extrapolating from the calibration curves that were obtained. These values were then correlated to the literature log P of two reference compounds (methyl benzoate and paracetamol).

The conditions of data set [2]: literature log P of reference compounds; cited from earlier work.
A further data set deals with IMQ on mouse skin. As to conditions: topical; cited from earlier work.
The mark [3] stands for this setting: activated T-cells, various concentrations.
Setting [4] is: 3% in petroleum jelly, relative to Vehicle, statistically significant (P<0.05) only on day 3.
Setting [5] is: 3% in petroleum jelly, vs Vehicle.
The mark [6] stands for this setting: in petroleum jelly (concentration not given), vs Vehicle.

What is called chromatographic logP is lipophilicity estimated from chromatographic retention. A high value points to a more lipophilic compound. Regarding `CC(=O)Oc1ccccc1C(=O)O[C@H]1COC2C1OC[C@H]2OC(=O)c1cccnc1` (some centres unmarked) [ST0702, Isosorbide-2-aspirinate-5-nicotinate], the “cumulative irritancy score (irritancy/erythema)” value in the data set on normal healthy skin (2%) is “did not cause irritancy/erythema”. The erythema/irritation entry in the data set with normal healthy skin (2% in petroleum jelly, 1 hour after application) is recorded as “did not cause erythema/irritation”. Besides, the temporal erythema response result with normal healthy skin is “resolved rapidly”. The PASI scores entry in the data set on Aldara-treated mice (0.5% topical, relative to Vehicle-treated mice) was “significantly lower on days 3 (P<0.05) and 4 (P<0.01)”. Moreover, in the data set on Aldara-treated mice (0.5 or 5% topical, vs Vehicle), the erythema score result was “significant, and dose-dependent, reductions”; the scaling score entry is “significant, and dose-dependent, reductions”; the skin thickness score entry is “significant, and dose-dependent, reductions”. In addition, the “efficacy in the ALDARA model” value in the data set with Aldara-treated mice (2%) is recorded as “effective”. Besides, the “skin inflammation (PASI score)” value in the data set with Aldara-treated mice (higher dose (5%) topical, vs Vehicle) is reported as “reduced skin inflammation on days 3-5 (P<0.01-0.001)”. Moreover, the “progressive development of psoriasis-like skin inflammation” value with Aldara-treated mice (topical in white petroleum jelly, two separate experiments (3%; 0.5 or 5%), vs Vehicle) is on record as “significantly (P<0.05-0.001) reduced”. Besides, the “number of IL-17 expressing cells” value in data set [1] is “inhibitory effect”. Besides, the “percentage of TNF-alpha expressing cells” value in data set [1] (50 μM) is listed as “reduced”. For the same compound, in data set [1] (setting [3]), the GM-CSF entry was “appreciable effect” and the IL-2 result is given as “not to have any appreciable effect”. Also, in data set [1] (in comparison to control), the “percentage of IFN-gamma expressing cells” value is reported as “significantly reduced”. For the same compound, the IL-10 result with Primary human DC was “no appreciable effect”. Further, in the data set “physchem”, the chromatographic logP turned out to be 4.1 and the “Extrapolated Rm (y value)” value is reported as 3.0977. Besides, in the data set “physchem” (40% MeOH in water), the Rf was 0.0460 and the Rm is recorded as 1.3168. In addition, in the data set “physchem” (50% MeOH in water), the Rf is reported as 0.1200 and the Rm is 0.8653. For the same compound, in “physchem” (60% MeOH in water), the Rf was 0.2730 and the Rm is 0.4254.
Regarding `CC(=O)Oc1ccccc1C(=O)O[C@H]1CO[C@H]2[C@@H]1OC[C@H]2OC(=O)c1ccncc1` [ST0703, Isosorbide-2-aspirinate-5-isonicotinate], in the data set with Aldara-treated mice (setting [4]), the PASI scores entry is “reduced the PASI scores”. In the data set on Aldara-treated mice (setting [5]), the erythema result is “reduced levels of elevated skin thickness and erythema”; the skin thickness result is “reduced levels of elevated skin thickness”. In addition, the “inflammation in the mouse psoriasis model” value in the data set on Aldara-treated mice is given as “did not inhibit inflammation”.
As to `O=C(O)c1cccnc1` [niacin], the temporal erythema response entry in the data set on normal healthy skin is listed as “persisted in the niacin case up to six hours”. For the same compound, in the data set with normal healthy skin (in vivo), the skin irritation entry is on record as “causes skin irritation”.
Turning to `CC(=O)Oc1ccccc1C(=O)OC1COC2C(OC(=O)c3ccccc3O)COC12` (centres unmarked) [ST0701, Isosorbide-2-aspirinate-5-salicylate], the PASI scores result in the data set on Aldara-treated mice (setting [4]) is on record as “reduced the PASI scores”. Besides, in the data set with Aldara-treated mice (setting [5]), the erythema entry was “reduced levels of elevated skin thickness and erythema”; the skin thickness result is recorded as “reduced levels of elevated skin thickness”. In addition, the “inflammation in the mouse psoriasis model” value with Aldara-treated mice was “did not inhibit inflammation”.
In the case of `O=C(O)c1ccccc1O` [salicylic acid], the “cumulative irritancy score (irritancy/erythema)” value in the data set with normal healthy skin (2%) is “did cause erythema”.
With `O=C(O[C@@H]1CO[C@H]2[C@@H]1OC[C@@H]2OC(=O)c1ccccc1O)c1cccnc1` [ST0702Sal, Isosorbide-2-salicylate-5-nicotinate], the PASI scores entry in the data set on Aldara-treated mice (in petroleum jelly (concentration not given), relative to Vehicle, days 4, 5 and 6) was “significantly reduced”. Further, in the data set on Aldara-treated mice (setting [6]), the Aldara-induced scaling result is “significantly (P<0.001) reduced”, the erythema result is “not altered” and the skin thickness result was “not altered”.
In the case of `CC(=O)Nc1ccc(O)cc1` [Paracetamol, paracetamol, reference compound], the Rf in the data set “physchem” (40% MeOH in water) is reported as 0.5460; in the data set “physchem” (50% MeOH in water), 0.6270; in the data set “physchem” (60% MeOH in water), 0.7460. Moreover, the figures for the Rm in the data set “physchem” (40% MeOH in water), in the data set “physchem” (50% MeOH in water) and in the data set “physchem” (60% MeOH in water) were −0.0801, −0.2256 and −0.4679, respectively. For the same compound, in the data set “physchem”, the “Extrapolated Rm (y value)” value is reported as 0.7116. Moreover, the “Log P (ref)” value in data set [2] is 0.48 (2).
Regarding `C=C1/C(=C\C=C2/CCC[C@]3(C)[C@@H]([C@H](C)/C=C/[C@@H](O)C4CC4)CC[C@@H]23)C[C@@H](O)C[C@@H]1O` [calcipotriol], in the data set with normal healthy skin (0.005%), the “cumulative irritancy score (irritancy/erythema)” value was “did cause erythema”. Further, in the data set on IMQ on mouse skin, the “IMQ-induced increased thickness of epidermal and subcutaneous tissue” value is recorded as “exacerbated”; the thickness reduction entry was “ineffective”.
Regarding `C[C@H]1C[C@H]2[C@@H]3CCC4=CC(=O)C=C[C@]4(C)[C@@]3(F)[C@@H](O)C[C@]2(C)[C@@]1(O)C(=O)CCl` [clobetesol], the thickness reduction result in the data set with IMQ on mouse skin was “best”.
As to `CCOC(=O)c1ccc(C#Cc2ccc3c(c2)C(C)(C)CCS3)nc1` [tazarotene], in the data set with IMQ on mouse skin, the “IMQ-induced increased thickness of epidermal and subcutaneous tissue” value is recorded as “exacerbated”; the thickness reduction entry is listed as “ineffective”.
`COC(=O)c1ccccc1` [Methyl Benzoate, methyl benzoate, reference compound]: the “Log P (calculated)” value in the data set “physchem” is given as 2.2. Besides, the Rf in “physchem” (40% MeOH in water) turned out to be 0.1460; in “physchem” (50% MeOH in water) it was 0.1867; in “physchem” (60% MeOH in water) it was 0.3600. Also, the Rm in the data set “physchem” (40% MeOH in water) is recorded as 0.7671; in the data set “physchem” (50% MeOH in water), 0.6391; in the data set “physchem” (60% MeOH in water) it was 0.2499. In “physchem”, the “Extrapolated Rm (y value)” value is reported as 1.845. Also, the “Log P (ref)” value in data set [2] is reported as 2.2 (1).
